Legend:
KRAS G12S = KRAS G12S (Homo sapiens (Human), UniProt P01116+P62937, G12S); assay: Ras-Raf (BRAF RBD) disruption / FRET / MOA assay, KRAS G12S; type: biochemical; settings: Ras-Raf disruption/FRET/MOA assay; class symbols; read-out: KRAS G12S FRET data IC50
Experimental: (§1) The purpose of this biochemical assay is to measure the ability of test compounds to facilitate ternary complex formation between a nucleotide-loaded Ras isoform and cyclophilin A; the resulting ternary complex disrupts binding to a BRAF^RBD construct, inhibiting Ras signaling through a RAF effector.
(§2) Compound is present in plate wells as a 10-point 3-fold dilution series starting at a final concentration of 30 μM. After incubation at 25° C. for 3 hours, a mixture of Anti-His Eu-W1024 and anti-GST allophycocyanin is then added to assay sample wells at final concentrations of 10 nM and 50 nM, respectively, and the reaction incubated for an additional 1.5 hours. […] Compounds that facilitate disruption of a Ras:RAF complex are identified as those eliciting a decrease in the TR-FRET ratio relative to DMSO control wells.
(§3) This protocol may also be executed substituting other Ras proteins or nucleotides.
(§4) The purpose of this biochemical assay was to measure the ability of test compounds to facilitate ternary complex formation between a nucleotide-loaded K-Ras isoform and Cyclophilin A; the resulting ternary complex disrupts binding to a BRAF^RBD construct, inhibiting K-Ras signaling through a RAF effector. Data is reported as IC50 values.
as §2, with “Compound was” for “Compound is”, “allophycocyanin was” for “allophycocyanin is”, “a K-Ras:RAF” for “a Ras:RAF”, “complex were” for “complex are”

KRAS G12D = KRAS G12D (Homo sapiens (Human), UniProt P01116+P62937, G12D); assay: Ras-Raf (BRAF RBD) disruption / FRET / MOA assay, KRAS G12D; type: biochemical; settings: Ras-Raf disruption/FRET/MOA assay; class symbols; read-out: KRAS G12D FRET data IC50
Experimental: as §1, §2, §3, §4
as §2, with “Compound was” for “Compound is”, “allophycocyanin was” for “allophycocyanin is”, “a K-Ras:RAF” for “a Ras:RAF”, “complex were” for “complex are”

KRAS G12D, sequence (P01116-2 other isoform, or with tags, fused parts or gaps G12D): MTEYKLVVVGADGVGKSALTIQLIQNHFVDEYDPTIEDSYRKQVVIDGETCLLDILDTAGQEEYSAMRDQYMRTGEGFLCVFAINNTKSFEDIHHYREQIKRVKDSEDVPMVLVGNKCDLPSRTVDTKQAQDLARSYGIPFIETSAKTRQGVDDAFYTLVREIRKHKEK
KRAS G12D, sequence (P62937 whole entry): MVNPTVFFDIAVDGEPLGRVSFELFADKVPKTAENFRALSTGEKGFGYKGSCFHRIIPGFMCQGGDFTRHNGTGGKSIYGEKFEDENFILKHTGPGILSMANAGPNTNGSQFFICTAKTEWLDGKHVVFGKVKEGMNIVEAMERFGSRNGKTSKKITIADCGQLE
KRAS G12S, sequence (P01116-2 other isoform, or with tags, fused parts or gaps G12S): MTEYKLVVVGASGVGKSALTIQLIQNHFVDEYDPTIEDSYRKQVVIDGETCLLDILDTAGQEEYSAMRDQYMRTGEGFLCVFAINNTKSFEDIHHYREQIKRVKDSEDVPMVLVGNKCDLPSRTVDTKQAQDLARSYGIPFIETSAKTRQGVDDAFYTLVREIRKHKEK
KRAS G12S, sequence (P62937 whole entry, canonical isoform): as the sequence (P62937 whole entry) above

| IC50 (KRAS G12S) | IC50 (KRAS G12D) | SMILES |
| --- | --- | --- |
| > 10000 nM | > 10000 nM | C=CC(=O)N1CC[C@H](C(=O)N(C)[C@H](C(=O)N[C@H]2Cc3cc(O)cc(c3)-c3ccc4c(c3)c(c(-c3c(CCOC)cccc3OC)n4CC)CC(C)(C)COC(=O)[C@@H]3CCCN(N3)C2=O)C(C)C)C1 [Example A080] |
| 100 to 1000 nM | 1000 to 10000 nM | C=CC(=O)N1CC[C@H](C(=O)N(C)[C@H](C(=O)N[C@H]2Cc3cc(O)cc(c3)-c3ccc4c(c3)c(c(-c3ccc(CN(C)C)cc3COC)n4CC)CC(C)(C)COC(=O)[C@@H]3CCCN(N3)C2=O)C(C)C)C1 [Example A051] |
| 100 to 1000 nM | 1000 to 10000 nM | C=CC(=O)N1CC[C@H](C(=O)N(C)[C@H](C(=O)N[C@H]2Cc3cc(O)cc(c3)-c3ccc4c(c3)c(c(-c3cccnc3COC)n4CC#N)CC(C)(C)COC(=O)[C@@H]3CCCN(N3)C2=O)C(C)C)C1 [Example A093] |
| 1000 to 10000 nM | > 10000 nM | C=CC(=O)N1CC[C@H](C(=O)N(C)[C@H](C(=O)N[C@H]2Cc3cc(O)cc(c3)-c3ccc4c(c3)c(c(-c3cncc(CCN(C)C)c3)n4CC)CC(C)(C)COC(=O)[C@@H]3CCCN(N3)C2=O)C(C)C)C1 [Example A081] |
| 1000 to 10000 nM | > 10000 nM | C=CC(=O)N1CCC(C(=O)N(C)[C@H](C(=O)N[C@H]2Cc3cc(O)cc(c3)-c3ccc4c(c3)c(c(-c3ccccc3CCOC)n4CC)CC(C)(C)COC(=O)[C@@H]3CCCN(N3)C2=O)C(C)C)CC1 [Example A014] |
| 1000 to 10000 nM | > 10000 nM | C=CC(=O)N1CC[C@H](C(=O)N(C)[C@H](C(=O)N[C@H]2Cc3cc(O)cc(c3)-c3ccc4c(c3)c(c(-c3ccc(C5CCN(C)CC5)nc3)n4CC)CC(C)(C)COC(=O)[C@@H]3CCCN(N3)C2=O)C(C)C)C1 [Example A098] |
| 100 to 1000 nM | 1000 to 10000 nM | C=CC(=O)N1CC[C@H](C(=O)N(C)[C@H](C(=O)N[C@H]2Cc3cc(O)cc(c3)-c3ccc4c(c3)c(c(-c3cccnc3COCC)n4CC)CC(C)(C)COC(=O)[C@@H]3CCCN(N3)C2=O)C(C)C)C1 [Example A044] |
| 1000 to 10000 nM | > 10000 nM | C=CC(=O)N1CCC(F)(C(=O)N(C)[C@H](C(=O)N[C@H]2Cc3cc(O)cc(c3)-c3ccc4c(c3)c(c(-c3ccccc3CN(C)C)n4CC)CC(C)(C)COC(=O)[C@@H]3CCCN(N3)C2=O)C(C)C)CC1 [Example A020] |
| > 10000 nM | > 10000 nM | C=CC(=O)N1CC[C@H](C(=O)N(C)[C@H](C(=O)N[C@H]2Cc3cc(O)cc(c3)-c3ccc4c(c3)c(c(-c3ccc(CC(=O)O)cc3)n4CC)CC(C)(C)COC(=O)[C@@H]3CCCN(N3)C2=O)C(C)C)C1 [Example A021] |
| 100 to 1000 nM | 1000 to 10000 nM | C=CC(=O)N1CC[C@H](C(=O)N(C)[C@H](C(=O)N[C@H]2Cc3cc(O)cc(c3)-c3ccc4c(c3)c(c(-c3ccccc3CN(C)C)n4CC)CC(C)(C)COC(=O)[C@@H]3CCCN(N3)C2=O)C(C)C)C1 [Example A005] |
| 100 to 1000 nM | 1000 to 10000 nM | C=CC(=O)N1CC[C@H](C(=O)N(C)[C@H](C(=O)N[C@H]2Cc3cc(O)cc(c3)-c3ccc4c(c3)c(c(-c3ccccc3[C@@H](C)OC)n4CC)CC(C)(C)COC(=O)[C@@H]3CCCN(N3)C2=O)C(C)C)C1 [Example A029] |
| 1000 to 10000 nM | > 10000 nM | C=CC(=O)N1CC2(CCN([C@H](C(=O)N[C@H]3Cc4cc(O)cc(c4)-c4ccc5c(c4)c(c(-c4ccccc4CCOC)n5CC)CC(C)(C)COC(=O)[C@@H]4CCCN(N4)C3=O)C(C)C)C2=O)C1 [Example A031] |
| > 10000 nM | > 10000 nM | C=CC(=O)N1CC[C@H](C(=O)N(C)[C@H](C(=O)N[C@H]2Cc3cc(O)cc(c3)-c3ccc4c(c3)c(c(-c3nccnc3COC)n4CC)CC(C)(C)COC(=O)[C@@H]3CCCN(N3)C2=O)C(C)C)C1 [Example A085] |
| – | > 10000 nM | C=CC(=O)N1CC[C@H](C(=O)N(C)[C@H](C(=O)N[C@H]2Cc3cc(O)cc(c3)-c3ccc4c(c3)c(c(-c3ccccc3CO)n4CC)CC(C)(C)COC(=O)[C@@H]3CCCN(N3)C2=O)C(C)C)C1 [Examples A004] |
| 1000 to 10000 nM | > 10000 nM | C=CC(=O)N1CC[C@H](C(=O)N(C)[C@H](C(=O)N[C@H]2Cc3cc(O)cc(c3)-c3ccc4c(c3)c(c(-c3cccc(CN(C)C)c3)n4CC)CC(C)(C)COC(=O)[C@@H]3CCCN(N3)C2=O)C(C)C)C1 [Example A030] |
| 100 to 1000 nM | > 10000 nM | C=CC(=O)N1C[C@H](C)[C@H](C(=O)N(C)[C@H](C(=O)N[C@H]2Cc3cc(O)cc(c3)-c3ccc4c(c3)c(c(-c3ccccc3CCOC)n4CC)CC(C)(C)COC(=O)[C@@H]3CCCN(N3)C2=O)C(C)C)C1 [Example A041] |
| – | 1000 to 10000 nM | CCn1c(-c2cccnc2COC)c2c3cc(ccc31)-c1cc(O)cc(c1)C[C@H](NC(=O)[C@H](C(C)C)N(C)C(=O)[C@H]1CCN(C(=O)C#CCN(C)C)C1)C(=O)N1CCC[C@H](N1)C(=O)OCC(C)(C)C2 [Example A096] |
| – | 1000 to 10000 nM | C=CC(=O)N1CC[C@H](C(=O)N(C)[C@H](C(=O)N[C@H]2Cc3cc(O)cc(c3)-c3ccc4c(c3)c(c(-c3ccccc3CCOC)n4C(C)(C)C#N)CC(C)(C)COC(=O)[C@@H]3CCCN(N3)C2=O)C(C)C)C1 [Example A034] |
| – | > 10000 nM | C=CC(=O)N1CC[C@H](C(=O)N(C)[C@H](C(=O)N[C@H]2Cc3cc(OC(=O)CCC(=O)O)cc(c3)-c3ccc4c(c3)c(c(-c3ccccc3CCOC)n4CC)CC(C)(C)COC(=O)[C@@H]3CCCN(N3)C2=O)C(C)C)C1 [Example A032] |
| – | 1000 to 10000 nM | C=CC(=O)N1CC[C@H](C(=O)N(C)[C@H](C(=O)N[C@H]2Cc3cc(O)cc(c3)-c3ccc4c(c3)c(c(-c3cc(F)cnc3COC)n4CC)CC(C)(C)COC(=O)[C@@H]3CCCN(N3)C2=O)C(C)C)C1 [Example A082] |

| SMILES | IC50 (KRAS G12S) | IC50 (KRAS G12D) |
| --- | --- | --- |
| C=CC(=O)N1CC[C@H](C(=O)N(C)[C@H](C(=O)N[C@H]2Cc3cc(O)cc(c3)-c3ccc4c(c3)c(c(C3=C(COC)COCC3)n4CC)CC(C)(C)COC(=O)[C@@H]3CCCN(N3)C2=O)C(C)C)C1 [Example A058] | 100 to 1000 nM | 1000 to 10000 nM |
| C=CC(=O)N1CC[C@H](C(=O)N(C)[C@H](C(=O)N[C@H]2Cc3cc(O)cc(c3)-c3ccc4c(c3)c(c(-c3cnccc3COC)n4CC)CC(C)(C)COC(=O)[C@@H]3CCCN(N3)C2=O)C(C)C)C1 [Example A091] | – | 1000 to 10000 nM |
| C=CC(=O)N1CC[C@H](C(=O)N(C)[C@H](C(=O)N[C@H]2Cc3cc(O)cc(c3)-c3ccc4c(c3)c(c(-c3cncc(C#N)c3)n4CC)CC(C)(C)COC(=O)[C@@H]3CCCN(N3)C2=O)C(C)C)C1 [Example A062] | – | > 10000 nM |
| C=CC(=O)N1C[C@H](C)[C@H](C(=O)N(C)[C@H](C(=O)N[C@H]2Cc3cc(O)cc(c3)-c3ccc4c(c3)c(c(-c3ccccc3CN(C)C)n4CC)CC(C)(C)COC(=O)[C@@H]3CCCN(N3)C2=O)C2CCCC2)C1 [Example A043] | 100 to 1000 nM | 1000 to 10000 nM |
| C=CC(=O)N1CC[C@H](C(=O)N(C)[C@H](C(=O)N[C@H]2Cc3cc(N)cc(c3)-c3ccc4c(c3)c(c(-c3ccccc3COC)n4CC)CC(C)(C)COC(=O)[C@@H]3CCCN(N3)C2=O)C(C)C)C1 [Example A042] | > 10000 nM | > 10000 nM |
| C=CC(=O)N1CC[C@H](C(=O)N(C)[C@H](C(=O)N[C@H]2Cc3cc(OC(C)=O)cc(c3)-c3ccc4c(c3)c(c(-c3ccccc3CN(C)C)n4CC)CC(C)(C)COC(=O)[C@@H]3CCCN(N3)C2=O)C(C)C)C1 [Example A059] | > 10000 nM | > 10000 nM |
| C=CC(=O)N1CC[C@H](C(=O)N(C)[C@H](C(=O)N[C@H]2Cc3cc(O)cc(c3)-c3ccc4c(c3)c(c(-c3cnccc3[C@H](C)OC)n4CC)CC(C)(C)COC(=O)[C@@H]3CCCN(N3)C2=O)C(C)C)C1 [Example A076] | – | 100 to 1000 nM |
| C=CC(=O)N1CC(C(=O)N(C)[C@H](C(=O)N[C@H]2Cc3cc(O)cc(c3)-c3ccc4c(c3)c(c(-c3cccnc3COC)n4CC)CC(C)(C)COC(=O)[C@@H]3CCCN(N3)C2=O)C(C)C)C1 (single isomer, unassigned) [Example A070] | 100 to 1000 nM | 1000 to 10000 nM |
| CCn1c(-c2ccccc2COC)c2c3cc(ccc31)-c1cc(O)cc(c1)C[C@H](NC(=O)[C@H](C(C)C)N(C)C(=O)[C@H]1CCN(C(=O)/C=C/CN(C)C)C1)C(=O)N1CCC[C@H](N1)C(=O)OCC(C)(C)C2 [Example A079] | 100 to 1000 nM | 1000 to 10000 nM |
| CCn1c(-c2ccccc2CN(C)C)c2c3cc(ccc31)-c1cc(O)cc(c1)C[C@H](NC(=O)[C@H](C(C)C)N(C)C(=O)c1ccc(NC(=O)/C=C/CN(C)C)cn1)C(=O)N1CCC[C@H](N1)C(=O)OCC(C)(C)C2 [Example A046] | > 10000 nM | 1000 to 10000 nM |
| C=CC(=O)N1C[C@H](C)[C@H](C(=O)N(C)[C@H](C(=O)N[C@H]2Cc3cc(O)cc(c3)-c3ccc4c(c3)c(c(-c3cccnc3COC)n4CC)CC(C)(C)COC(=O)[C@@H]3CCCN(N3)C2=O)C2CCCC2)C1 [Example A057] | 100 to 1000 nM | 1000 to 10000 nM |
